Measured values reported in patent US20210220376A1, “ADDICTION TREATMENT OF AN ALCOHOL-CONSUMING PATIENT POPULATION” (Amygdala Neurosciences, Inc., priority 2018, published 2021).

Tested on: healthy male alcohol drinkers
Experiment: Phase 1 single-ascending-dose study of compound (2) coadministered with ethanol: safety
Assay type: in vivo, human
Procedure: This was a single-center, randomized, double-blind, placebo-controlled, single-ascending-dose cohort study to evaluate the safety and tolerability of the coadministration of up to 6 dose levels of compound (2) (25 mg, 50 mg, 100 mg, 200 mg, 400 mg and 600 mg) and EtOH in healthy male alcohol drinkers.
Within 27 days of the medical screening visit, subjects were enrolled and attended an inpatient Qualification Phase in which they received up to 5 standard drinks (14 grams of EtOH each; oral solution of vodka containing 40% [v/v] EtOH, mixed with a non-carbonated beverage, one drink every 30 minutes) to evaluate their tolerance to repeat administration to ensure they could safely tolerate the planned EtOH treatment. A minimum washout interval of 44 hours was performed between initiation of the last EtOH administration in the Qualification Phase and study drug administration in the Treatment Phase.
Following qualification, eligible subjects were enrolled and randomized to receive compound (2) or placebo in a 3:1 fashion in each of 6 cohorts (8 subjects per cohort). As a safety precaution, no more than 4 subjects were administered study drug on any given day. Planned compound (2) dose levels included doses of 25 mg, 50 mg, 100 mg, 200 mg, 400 mg, and 600 mg. Study drug administration occurred approximately 1 hour following ingestion of a standardized (moderate-fat) meal. Approximately 2 hours after receiving the study drug, subjects began a session of repeat EtOH administration, during which they could receive up to 5 doses of EtOH (14 grams each, approximately 1 standard drink) every 30 minutes, or until a stopping criterion applied. Safety assessments, pharmacodynamic assessments and pharmacokinetic blood sample collections were obtained up to 48 hours post-dose. Subjects were discharged after 48-hour post-dose procedures were completed and the investigator deemed it safe to do so. Subjects returned for the safety follow-up visit approximately 7 (±2) days following discharge from the Treatment Phase or after early discontinuation from the study.
The primary endpoints included frequency and severity of adverse events (AEs), ethanol reaction (ER) scores and flushing, laboratory values, vital signs, and electrocardiograms (ECGs).
Subjects' ER scores and flushing were summarized descriptively by timepoint, category and treatment. In addition, flushing, ER heat sensation and ER palpitation were compared between each of the active doses and placebo using a mixed-effect model for repeated measures (MMRM) analysis with treatment, visit, and treatment by visit as fixed effects and baseline as a covariate. The actual value was used as the dependent variable and visit included pre-EtOH, 30 minutes, 60 minutes, 90 minutes, 120 minutes, 150 minutes and 3 hours relative to the first EtOH administration in Treatment Phase. The variance-covariance matrix was assumed to be unstructured. […] Results were presented as least square means (LSMEANS), treatment differences in LSMEANS, 95% confidence intervals (CI) and p-values.
Vital signs measurements (respiratory rate, systolic and diastolic blood pressure, and heart rate) were summarized by treatment and visit. Heart rate and diastolic blood pressure were also compared between each of the active doses and placebo using an MMRM analysis with treatment, visit, and treatment by visit as fixed effects and baseline as a covariate.
Twelve-lead ECG results were summarized by timepoint and treatment, and frequencies (numbers and percentages) were calculated for the overall evaluation. Concomitant medications, clinical laboratory evaluations (raw data and change from baseline, as applicable) and physical examination findings were listed.

[1] = 200 mg, 135 min after first EtOH
[2] = 400 mg, 15 min after first EtOH
[3] = 400 mg, 45 min after first EtOH
[4] = 400 mg, 75 min after first EtOH
[5] = 400 mg, 105 min after first EtOH
[6] = 400 mg, 135 min after first EtOH
[7] = 600 mg, 15 min after first EtOH
[8] = 600 mg, 45 min after first EtOH
[9] = 600 mg, 75 min after first EtOH
[10] = 600 mg, 105 min after first EtOH
[11] = 600 mg, 135 min after first EtOH
[12] = Overall (N = 36), 15 min after first EtOH
[13] = Overall (N = 36), 45 min after first EtOH
[14] = Overall (N = 36), 75 min after first EtOH
[15] = Overall (N = 36), 105 min after first EtOH
[16] = Overall (N = 36), 135 min after first EtOH

SMILES: O=C(NCc1ccc(-c2ccn(COP(=O)(O)O)c(=O)c2)cc1)c1c(Cl)cccc1Cl [Compound (2), phosphoric acid mono-(4-{4-[(2,6-dichloro-benzoylamino)-methyl]-phenyl}-2-oxo-2H-pyridin-1-ylmethyl) ester]
- Diastolic Blood Pressure, Mean [1]: 69.3 mmHg
- Heart Rate, Mean [1]: 96.2 beats/min
- Systolic Blood Pressure, Mean [1]: 124.0 mmHg
- Diastolic Blood Pressure, Mean (200 mg, Pre-EtOH): 73.8 mmHg
- Heart Rate, Mean (200 mg, Pre-EtOH): 60.2 beats/min
- Systolic Blood Pressure, Mean (200 mg, Pre-EtOH): 119.8 mmHg
- subjects with TEAE of sinus tachycardia (200 mg, after EtOH): three
- subjects with TEAE of tachycardia (200 mg, after EtOH): one
- subjects with TEAE of tachypnea (200 mg, after EtOH): One
- QTcF Interval, Aggregate, Mean (200 mg, prior to initiation of repeat EtOH administration session): 400.2 ms
- subjects reporting a TEAE (400 mg): 100%
- Diastolic Blood Pressure, Mean [2]: 71.3 mmHg
- Systolic Blood Pressure, Mean [2]: 112.8 mmHg
- Diastolic Blood Pressure, Mean [3]: 71.8 mmHg
- Heart Rate, Mean [3]: 81.2 beats/min
- Systolic Blood Pressure, Mean [3]: 120.0 mmHg
- QTcF Interval, Aggregate, Mean (400 mg, 1 hour after initiation of repeat EtOH administration session): 394.8 ms
- Diastolic Blood Pressure, Mean [4]: 70.5 mmHg
- Heart Rate, Mean [4]: 82.7 beats/min
- Systolic Blood Pressure, Mean [4]: 119.3 mmHg
- Diastolic Blood Pressure, Mean [5]: 72.2 mmHg
- Heart Rate, Mean [5]: 86.2 beats/min
- Systolic Blood Pressure, Mean [5]: 118.5 mmHg
- Diastolic Blood Pressure, Mean [6]: 71.0 mmHg
- Heart Rate, Mean [6]: 83.7 beats/min
- Systolic Blood Pressure, Mean [6]: 118.8 mmHg
- Diastolic Blood Pressure, Mean (400 mg, Pre-EtOH): 71.7 mmHg
- Heart Rate, Mean (400 mg, Pre-EtOH): 61.2 beats/min
- Systolic Blood Pressure, Mean (400 mg, Pre-EtOH): 115.3 mmHg
- QTcF Interval, Aggregate, Mean (400 mg, prior to initiation of repeat EtOH administration session): 396.7 ms
- subjects reporting a TEAE (600 mg): 83.3%
- Diastolic Blood Pressure, Mean [7]: 75.0 mmHg
- Systolic Blood Pressure, Mean [7]: 122.3 mmHg
- Diastolic Blood Pressure, Mean [8]: 75.0 mmHg
- Heart Rate, Mean [8]: 85.2 beats/min
- Systolic Blood Pressure, Mean [8]: 127.3 mmHg
- QTcF Interval, Aggregate, Mean (600 mg, 1 hour after initiation of repeat EtOH administration session): 394.3 ms
- Diastolic Blood Pressure, Mean [9]: 74.2 mmHg
- Heart Rate, Mean [9]: 91.8 beats/min
- Systolic Blood Pressure, Mean [9]: 130.2 mmHg
- Diastolic Blood Pressure, Mean [10]: 72.0 mmHg
- Heart Rate, Mean [10]: 91.8 beats/min
- Systolic Blood Pressure, Mean [10]: 126.8 mmHg
- Diastolic Blood Pressure, Mean [11]: 74.8 mmHg
- Heart Rate, Mean [11]: 92.3 beats/min
- Systolic Blood Pressure, Mean [11]: 127.7 mmHg
- Diastolic Blood Pressure, Mean (600 mg, Pre-EtOH): 75.2 mmHg
- Heart Rate, Mean (600 mg, Pre-EtOH): 61.2 beats/min
- Systolic Blood Pressure, Mean (600 mg, Pre-EtOH): 120.2 mmHg
- QTcF Interval, Aggregate, Mean (600 mg, prior to initiation of repeat EtOH administration session): 393.8 ms
- deaths or serious adverse events (25-600 mg oral with up to 5 doses of EtOH (14 g each)): no deaths or serious adverse events
- Diastolic Blood Pressure, Mean [12]: 74.0 mmHg
- Systolic Blood Pressure, Mean [12]: 118.8 mmHg
- Diastolic Blood Pressure, Mean [13]: 73.4 mmHg
- Heart Rate, Mean [13]: 76.6 beats/min
- Systolic Blood Pressure, Mean [13]: 122.0 mmHg
- QTcF Interval, Aggregate, Mean (Overall (N = 36), 1 hour after initiation of repeat EtOH administration session): 401.1 ms
- Diastolic Blood Pressure, Mean [14]: 72.5 mmHg
- Heart Rate, Mean [14]: 82.9 beats/min
- Systolic Blood Pressure, Mean [14]: 122.3 mmHg
- Diastolic Blood Pressure, Mean [15]: 71.3 mmHg
- Heart Rate, Mean [15]: 85.3 beats/min
- Systolic Blood Pressure, Mean [15]: 121.7 mmHg
- Diastolic Blood Pressure, Mean [16]: 72.8 mmHg
- Heart Rate, Mean [16]: 82.5 beats/min
- Systolic Blood Pressure, Mean [16]: 121.3 mmHg
- Diastolic Blood Pressure, Mean (Overall (N = 36), Pre-EtOH): 73.4 mmHg
- Heart Rate, Mean (Overall (N = 36), Pre-EtOH): 59.3 beats/min
- Systolic Blood Pressure, Mean (Overall (N = 36), Pre-EtOH): 117.3 mmHg
- QTcF Interval, Aggregate, Mean (Overall (N = 36), prior to initiation of repeat EtOH administration session): 399.4 ms
- changes in diastolic blood pressure compared with placebo (after EtOH administration): no significant changes
- changes in systolic blood pressure compared with placebo (after EtOH administration): no significant changes
- subjects reporting a TEAE (all compound (2)-treated subjects): 88.9%
- incidence of flushing and feeling hot compared with placebo (all doses): higher
- compound (2)-treated subjects who did not consume all 5 EtOH administrations due to TEAEs (all doses, N = 36): 5.6%
- flushing (all other doses (50-600 mg)): observed
- tolerability (all treatments): generally well tolerated
- ER subjective assessment compared with placebo (heat sensation, palpitations): more likely to report feeling heat sensation and feeling palpitations
